Measurements as given in US10758517B2, “mPGES-1 inhibitor for the treatment of osteoarthritis pain” (Glenmark Pharmaceuticals S.A., priority 2017, dated 2020).

Key:
[1] = Safety and tolerability of single oral doses (Example 1); type: in vivo, human; settings: single doses up to 1000 mg
Method: (§1) In Part 1a, single doses of Compound I of 10 mg (Group A), 30 mg (Group B), 100 mg (Group C), 250 mg (Group D), 500 mg (Group E) and 1000 mg (Group F) were administered after fasting. In each dose group, 6 subjects received Compound I and 2 subjects received placebo.
Adverse events (AEs), vital signs, 12-lead electrocardiogram (ECG), clinical laboratory evaluations and physical examination.
(§2) Summary statistics were presented for the PK, pharmacodynamic (PD) and safety data, as appropriate. PK parameters following single oral doses of Compound I were determined from the plasma concentrations of Compound I using non-compartmental procedures in WinNonlin Dose proportionality was assessed using a power model, with tmax analyzed using the Kruskal-Wallis test. The effect of food on PK was assessed at the 100 and 250 mg doses using a mixed effects model. The effect of age on PK was assessed for elderly (>65 years) versus non-elderly (<65 years) at the 250 mg dose level in Parts 1a and 2, using an analysis of variance (ANOVA) with age as a fixed effect. For PD analyses, percent decrease of ex vivo LPS-induced PGE2 release was calculated. For Part 3, urinary excretion of prostanoid metabolites was also evaluated. The data are presented as absolute, as well as creatinine normalized urinary biomarker amounts, along percent change from baseline over a definite time interval. The percent change from baseline in urinary biomarkers was assessed using an analysis of covariance (ANCOVA) model

[2] = Plasma pharmacokinetics after single oral doses (Example 1); type: in vivo, human; settings: for dose proportionality of exposure: single oral doses
Method: as §1
In Part 2, a dose of 250 mg was administered after fasting. 6 subjects received Compound I and 2 subjects received placebo.
Blood and urine samples for the analysis of plasma and urinary concentrations of Compound I.
as §2

[3] = tested on: LPS-induced PGE2 release; experiment: Ex vivo LPS-induced PGE2 release in whole blood, single dose crossover versus celecoxib (Example 1, Part 3); parameters: species or system human
Method: Part 2 was a single-dose, double-blind study in a single cohort of elderly subjects. Part 3 was an open-label, randomized, 2-period, single-dose, crossover study to compare effects of the highest tolerated Compound I dose and celecoxib on prostanoid metabolism in healthy adult subjects.
In Part 3, Compound I was administered at a dose of 1000 mg after fasting. All subjects received Compound I and all subjects received 400 mg celecoxib in a cross-over study design.
(§3) In Parts 1a and 3, whole blood samples were incubated and analyzed for lipopolysaccharide (LPS)-induced prostaglandin PGE2 release. In Part 3, urine samples were collected for analysis of prostanoid metabolites.
as §2
(§4) Percent change in ex vivo LPS-induced PGE2 release in whole blood is the pharmacodynamic (PD) biomarker. The PGE2 levels in whole blood were estimated using the homogeneous time-resolved fluorescence method.
(§5) Concentrations below the limit of quantification were treated as ½ the lower limit of quantification for calculation.
Time points where unstimulated prostaglandin E2 (PGE2) concentration was more than 3 times greater than the mean unstimulated PGE2 and equal to or greater than ½ baseline value for an individual subject were not included in the calculation of % inhibition.

[4] = tested on: LPS-induced PGE2 release; experiment: Ex vivo LPS-induced PGE2 release in whole blood, single ascending oral doses (Example 1, Part 1a); parameters: species or system human; settings: for EAUC0-24 h, Difference in LS mean versus placebo / EAUC0-24 h, LS mean / EAUC0-336 h, Difference in LS mean versus placebo / EAUC0-336 h, LS mean / ETmax (time to reach maximum effect), Median / ETmax, Median difference versus placebo / Epeak (maximum % inhibition), LS mean / Epeak, Difference in LS mean versus placebo: fasted healthy subjects
Method: as §1, §3, §2, §4, §5
Time points where unstimulated PGE2 concentration was more than 3 times greater than the mean unstimulated PGE2 and equal to or greater than ½ baseline value for an individual subject were not included in the calculation of percent inhibition. If pre-dose LPS-induced PGE2 was less than unstimulated PGE2, the value was not used for calculation of percent inhibition.

[5] = Compound I 1000 mg versus celecoxib 400 mg, single oral doses, fasted
[6] = single oral dose 1000 mg, fasted healthy subjects

CC(C)(C)C(=O)NCc1ccc(Cl)c(-c2nn(-c3ccc(C(F)(F)F)cc3)c(=O)[nH]2)c1 [Compound I, N-(4-chloro-3-(5-oxo-1-(4-(trifluoromethyl)phenyl)-4,5-dihydro-1H-1,2,4-triazol-3-yl)benzyl)pivalamide]
dose effect on incidence or severity of treatment-emergent AEs [1]: no evidence of a dose effect
lab abnormalities or ECG findings [1]: No clinically significant lab abnormalities or ECG findings
tolerability ([1]; healthy adult subjects): well tolerated
dose proportionality of exposure ([2]; 10 to 250 mg dose range): Near proportional increases
pharmacokinetic differences in elderly subjects ([2]; elderly subjects, single dose 250 mg): No notable pharmacokinetic differences
dose proportionality of exposure ([2]; higher doses (250 to 1000 mg)): sub-proportional increases
half-life ([2]; human, plasma, single oral doses 10 to 1000 mg, independent of dose, read-out: mean T1/2): 41.7 to 54.5 h
Tmax ([2]; human, plasma, single oral doses of 10 and 30 mg, read-out: median Tmax): 2 h
EAUC0-24 h, Difference in LS mean versus celecoxib [3, 5]: 7.89 % · h
EAUC0-336 h, Difference in LS mean versus celecoxib [3, 5]: 19024 % · h
ETmax, Median difference versus celecoxib [3, 5]: 6.00 h
Epeak, Difference in LS mean versus celecoxib [3, 5]: −1.87%
EAUC0-24 h, LS mean [3, 6]: 1428 % · h
EAUC0-336 h, LS mean [3, 6]: 8866 % · h
ETmax (time to reach maximum effect), Median [3, 6]: 12.0 h
Epeak (maximum % inhibition), LS mean [3, 6]: 87.2%
inhibition of LPS-induced PGE2 concentration ([3]; single oral dose 1000 mg, maintained for at least 168 hours post-dose): approximately 50%
persistence of inhibition ([4]; 1000 mg single dose): still apparent at 336 hours
time for which near maximal inhibition was retained ([4]; 250 and 500 mg single doses): at least 168 hours
time for which reduction in PGE2 release was apparent ([4]; lower doses, post-dose): approximately 24 hours
EAUC0-24 h, Difference in LS mean versus placebo ([4]; single oral dose 10 mg): 956 % · h
EAUC0-24 h, LS mean ([4]; single oral dose 10 mg): 898 % · h
EAUC0-336 h, Difference in LS mean versus placebo ([4]; single oral dose 10 mg): −5321 % · h
EAUC0-336 h, LS mean ([4]; single oral dose 10 mg): −3824 % · h
ETmax (time to reach maximum effect), Median ([4]; single oral dose 10 mg): 4.00 h
ETmax, Median difference versus placebo ([4]; single oral dose 10 mg): -8.02 h
Epeak (maximum % inhibition), LS mean ([4]; single oral dose 10 mg): 77.7%
Epeak, Difference in LS mean versus placebo ([4]; single oral dose 10 mg): 9.90%
EAUC0-24 h, Difference in LS mean versus placebo ([4]; single oral dose 30 mg): 1028 % · h
EAUC0-24 h, LS mean ([4]; single oral dose 30 mg): 970 % · h
EAUC0-336 h, Difference in LS mean versus placebo ([4]; single oral dose 30 mg): 7240 % · h
EAUC0-336 h, LS mean ([4]; single oral dose 30 mg): 8736 % · h
ETmax (time to reach maximum effect), Median ([4]; single oral dose 30 mg): 3.04 h
ETmax, Median difference versus placebo ([4]; single oral dose 30 mg): -8.98 h
Epeak (maximum % inhibition), LS mean ([4]; single oral dose 30 mg): 72.8%
Epeak, Difference in LS mean versus placebo ([4]; single oral dose 30 mg): 4.94%
EAUC0-24 h, Difference in LS mean versus placebo ([4]; single oral dose 100 mg): 1709 % · h
EAUC0-24 h, LS mean ([4]; single oral dose 100 mg): 1650 % · h
EAUC0-336 h, Difference in LS mean versus placebo ([4]; single oral dose 100 mg): 10115 % · h
EAUC0-336 h, LS mean ([4]; single oral dose 100 mg): 11612 % · h
ETmax (time to reach maximum effect), Median ([4]; single oral dose 100 mg): 7.02 h
ETmax, Median difference versus placebo ([4]; single oral dose 100 mg): -7.50 h
Epeak (maximum % inhibition), LS mean ([4]; single oral dose 100 mg): 91.6%
Epeak, Difference in LS mean versus placebo ([4]; single oral dose 100 mg): 23.8%
EAUC0-24 h, Difference in LS mean versus placebo ([4]; single oral dose 250 mg): 1608 % · h
EAUC0-24 h, LS mean ([4]; single oral dose 250 mg): 1550 % · h
EAUC0-336 h, Difference in LS mean versus placebo ([4]; single oral dose 250 mg): 12965 % · h
EAUC0-336 h, LS mean ([4]; single oral dose 250 mg): 14461 % · h
ETmax (time to reach maximum effect), Median ([4]; single oral dose 250 mg): 2.03 h
ETmax, Median difference versus placebo ([4]; single oral dose 250 mg): -9.94 h
Epeak (maximum % inhibition), LS mean ([4]; single oral dose 250 mg): 92.8%
Epeak, Difference in LS mean versus placebo ([4]; single oral dose 250 mg): 24.9%
EAUC0-24 h, Difference in LS mean versus placebo ([4]; single oral dose 500 mg): 1766 % · h
EAUC0-24 h, LS mean ([4]; single oral dose 500 mg): 1707 % · h
EAUC0-336 h, Difference in LS mean versus placebo ([4]; single oral dose 500 mg): 16417 % · h
EAUC0-336 h, LS mean ([4]; single oral dose 500 mg): 17914 % · h
ETmax (time to reach maximum effect), Median ([4]; single oral dose 500 mg): 12.0 h
ETmax, Median difference versus placebo ([4]; single oral dose 500 mg): -0.0333 h
Epeak (maximum % inhibition), LS mean ([4]; single oral dose 500 mg): 87.7%
Epeak, Difference in LS mean versus placebo ([4]; single oral dose 500 mg): 19.9%
EAUC0-24 h, Difference in LS mean versus placebo ([4]; single oral dose 1000 mg): 1086 % · h
EAUC0-24 h, LS mean ([4]; single oral dose 1000 mg): 1028 % · h
EAUC0-336 h, Difference in LS mean versus placebo ([4]; single oral dose 1000 mg): 17780 % · h
EAUC0-336 h, LS mean ([4]; single oral dose 1000 mg): 19277 % · h
ETmax (time to reach maximum effect), Median ([4]; single oral dose 1000 mg): 144 h
ETmax, Median difference versus placebo ([4]; single oral dose 1000 mg): 112 h
Epeak (maximum % inhibition), LS mean ([4]; single oral dose 1000 mg): 81.8%
Epeak, Difference in LS mean versus placebo ([4]; single oral dose 1000 mg): 14.0%
inhibition of ex vivo LPS-induced PGE2 release (in words) ([4]; single oral doses from 10 mg to 1000 mg): marked dose-dependent inhibition
